Reference: patent US20030143645A1, “Quinone reductase 2 and aldehyde dehydrogenase as therapeutic targets” (priority 2001, published 2003)
Read-outs that look alike come from different tables or passages of the source.

Tests used:
[1] = test system: purine binding proteome (hALDH1 and hQR2); test: ATP affinity array / ATP-Sepharose displacement elution of RBC purine binding proteome; set-up: species or system human; settings: for proteins eluted from ATP-Sepharose (ALDH1 55 kDa, QR2 26 kDa): RBC extract, 5 mM drug (Example 2); for proteins eluted from ATP affinity array (hALDH1 and hQR2): non-infected red cells, drug at [mM]
Experimental: ATP-affinity array chromatography. In whole mouse experiments, the animal (except for its tail, feet, skin and intestines) was frozen in liquid N2 and blended in buffer A containing 50 mM Hepes, pH 7.5, 50 mM NaCl, 10 mM MgCl2, 0.1% NONIDET- P40, 1 mM dithiothreitol, 1 μg/ml leupeptin, 100 μg/ml pefabloc and 10 μg/ml aprotinin. Mouse lysate was clarified by centrifugation for 1 hr at 100,000×g. For infected and non-infected RBC's˜1.5×10^9 cells were mixed with an equal volume of 2×buffer A, rocked for 30 min at 4° C., and clarified by centrifugation for 1 hr at 100,000×g. Supernatants were dialyzed overnight against 50 mM Hepes, pH 7.5, 50 mM NaCl, 10 mM MgCl2 and 1 mM dithiothreitol. […] Proteins were resolved by 12% SDS-PAGE and visualized by staining either with Coomassie brilliant Blue R-250 or silver nitrate. Alternatively, proteins were transferred to membrane GeneMate (Kaysville, Utah) in transfer buffer (25 mM Tris, 200 mM glycine, 20% methanol, and 0.01% SDS) for mixed peptide sequencing (Damer et al, J. Biol. Chem. 273:24396 (1998)). hALDH 1 and hQR2 purification and activity assays. Fresh human red blood cells (RBC) were obtained from Valley Biomedical, washed twice with PBS, and lysed in buffer B (0.1% Triton X, 50 mM Tris pH 7.5, 125 mM NaCl, 1 μg/mL aprotonin, 1 μg/mL pepstatin and 10 μg/mL PEFABLOC). Lysates were centrifuged twice at 125,000×g for 1 hr at 4° C. Cleared supernatant was filtered through a […] filter and loaded onto PQ-Sepharose. Pure hALDH was eluted with 5 mM NADH and pure hQR2 with 5 mM NMeN. The eluants were dialyzed overnight at 4° C. against 25 mM Tris pH 8.0 and 1 mM DTT. hALDHl was assayed as described in Table 2. Purified hQR2 was assayed at 22° C. in 100 μM N-methyldihydronicotinamide, 30 μM menadione, 0.1% Triton X-100, 50 mM Tris pH 8.5, 100 μM dicoumarol (unless stated otherwise). N-methyldihydronicotinamide was synthesized (Ortiz-Maldonado et al, Biochemistry 38(50):16636-16647 (1999)) and stored in 100 mM Tris-sulfate pH 8.0.
An ATP affinity array was charged with RBC and P. falciparum (blood stage) infected RBC extract.
chromatography. P. falciparum-infected or non-infected RBCs were lysed by mixing with an equal volume of 2×buffer A and rocking for 30 min at 4° C. 1×buffer A: 50 mM Hepes, pH 7.5, 50 mM NaCl, 10 mM MgCl2, 0.1% NONIDET-P40, 1 mM dithiothreitol, 1 μg/ml leupeptin, 100 μg/ml pefabloc and 1 μg/ml aprotinin. […] Proteins were resolved by 12% SDS-PAGE and visualized by staining with Coomassie brilliant blue R-250 or silver nitrate. Alternatively, proteins were transferred to PVM membrane (Kaysville, Utah) for mixed peptide sequencing (Damer et al, J. Biol. Chem. 273(38):24396-24405 (1998)).
To better understand the mechanism of the quinolines, an attempt was made to identify all quinoline interacting proteins in a cell or animal lysate. To achieve this, a functional proteomics approach was used as outlined in FIG. 7. In this strategy, three different, yet complementary approaches were conducted to identify and validate targets of the quinolines. In step one, termed displacement affinity chromatography, a specific sub-proteome from a cell is captured on an affinity matrix by virtue of its interaction with an immobilized ligand (FIG. 7, Step 1). The sup-proteome is captured after application of saturating amounts of cell lysate and extensive washing of the resin. The compounds of interest (in this case, the quinolines) are then applied to the matrix in parallel and allowed to interact with the bound proteome. […] In the second step, affinity matrices were created by directly linking the quinoline drugs to Sepharose, and after application of cell lysates, all proteins that specifically eluted from these matrices in the presence of drug were identified (FIG. 7 Step 2).

QR2 [2] = biological target: T1, QR2 (Homo sapiens, UniProt P16083); test: QR2 activity assay with recombinant QR2 (Example 2); format: biochemical; set-up: GST (N, cleaved yes); made in house; E. coli only by inference
T1 sequence (P16083 1-231): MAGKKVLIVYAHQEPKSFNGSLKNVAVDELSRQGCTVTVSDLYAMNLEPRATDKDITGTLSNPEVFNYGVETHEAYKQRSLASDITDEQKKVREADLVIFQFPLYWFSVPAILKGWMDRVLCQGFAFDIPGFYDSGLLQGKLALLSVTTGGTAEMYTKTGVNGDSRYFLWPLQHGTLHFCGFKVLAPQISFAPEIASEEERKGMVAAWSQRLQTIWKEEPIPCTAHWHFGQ
Experimental: Cloning of human QR2. Human QR2 was PCR amplified from human liver cDNA (Clontech) with the following primers: 5′[…]-3′ and 5′-[…]-3′ and cloned into the pGEX-4T-2 GST expression vector (Pharmacia). GST-tagged QR2 was purified and the GST tag removed according to the manufacturers instructions.
(§1) ALDH1, QR2 and QR1 activity assays. […] Reaction products were separated with a gradient of acetonitrile in 10 mM triethylamine acetic acid. […] QR1 IC50 values were calculated using GraphPad Prism.

QR1 = QR1 (Oryctolagus cuniculus, UniProt U3KNP2); test: QR1 activity assay (Example 2); format: biochemical, rabbit; set-up: QR1 was purified from rabbit liver as previously described; from tissue; host or cells: rabbit liver
Experimental: Purification of native ALDH1, QR2 and QR1. RBC extract was prepared as described above and applied to PQ-Sepharose equilibrated in buffer A. ALDH1 and QR2 were obtained by eluting the column with 5 mM b-NAD^+ and NMeH respectively.
as §1

QR2 [3] = biological target: T1, QR2; test: hQR2 activity assay, enzyme purified from human RBC (Example 1); format: biochemical; set-up: Pure hALDH was eluted with 5 mM NADH and pure hQR2 with 5 mM NMeN; tissue Valley Biomedical (blood); host or cells: human red blood cells
Experimental: ATP-affinity array chromatography. In whole mouse experiments, the animal (except for its tail, feet, skin and intestines) was frozen in liquid N2 and blended in buffer A containing 50 mM Hepes, pH 7.5, 50 mM NaCl, 10 mM MgCl2, 0.1% NONIDET- P40, 1 mM dithiothreitol, 1 μg/ml leupeptin, 100 μg/ml pefabloc and 10 μg/ml aprotinin. Mouse lysate was clarified by centrifugation for 1 hr at 100,000×g. For infected and non-infected RBC's˜1.5×10^9 cells were mixed with an equal volume of 2×buffer A, rocked for 30 min at 4° C., and clarified by centrifugation for 1 hr at 100,000×g. Supernatants were dialyzed overnight against 50 mM Hepes, pH 7.5, 50 mM NaCl, 10 mM MgCl2 and 1 mM dithiothreitol. […] Lysates were centrifuged twice at 125,000×g for 1 hr at 4° C. […] Pure hALDH was eluted with 5 mM NADH and pure hQR2 with 5 mM NMeN. The eluants were dialyzed overnight at 4° C. against 25 mM Tris pH 8.0 and 1 mM DTT. hALDHl was assayed as described in Table 2. Purified hQR2 was assayed at 22° C. in 100 μM N-methyldihydronicotinamide, 30 μM menadione, 0.1% Triton X-100, 50 mM Tris pH 8.5, 100 μM dicoumarol (unless stated otherwise).
For QR2 Kd apparent values determined using the expression [formula]
The Kd was determined as [formula]
Where Ao=rate in the absence of drug; Aapp=rate+drug; [M]=concentration of menadione.

[4] = test system: Plasmodium falciparum strain 3D7; test: P. falciparum growth by (3H)hypoxanthine uptake; format: cell-based; settings: in vitro
Experimental: Plasmodium cultures. Plasmodium falciparum strain 3D7 was obtained from the MR4/ATCC and grown according to the included specifications. Parasites were harvested by saponin lysis as previously described (Schlichtherle et al (eds) Methods in Malaria Research 77(MR4/ATCC, Manasas, Va. 2000). P. falciparum growth was measured by (^3H)hypoxanthine uptake as previously described (Schlichtherle et al (eds) Methods in Malaria Research 77(MR4/ATCC, Manasas, Va. 2000).
To determine the contribution of QR2 or ALDH1 inhibition to the antimalarial properties of the quinolines, known inhibitors of QR2 or ALDH1 were added to P. falciparum and its growth was measured. Known inhibitors of P. falciparum growth all had IC50 values in agreement with the literature (FIG. 12A). […] The explanation for this finding is likely to be related to the abilities of the drugs to penetrate the plasma membrane or their ability to become concentrated within P. falciparum infected RBCs.

malaria infection = test: cell-based assays of infection
[5] = substrate: CC1=CC(=O)c2ccccc2C1=O; test: hQR2 activity assay, enzyme purified from human RBC (Example 1); format: biochemical; settings: 22.0 °C
[6] = QR1 purified from rabbit liver, read-out: QR1 IC50 (μM) ± SEM
[7] = recombinant QR2, 50 μM NMeH, 5-30 μM menadione, read-out: QR2 K1 (μM) ± SEM

QR1, sequence (U3KNP2 1-274): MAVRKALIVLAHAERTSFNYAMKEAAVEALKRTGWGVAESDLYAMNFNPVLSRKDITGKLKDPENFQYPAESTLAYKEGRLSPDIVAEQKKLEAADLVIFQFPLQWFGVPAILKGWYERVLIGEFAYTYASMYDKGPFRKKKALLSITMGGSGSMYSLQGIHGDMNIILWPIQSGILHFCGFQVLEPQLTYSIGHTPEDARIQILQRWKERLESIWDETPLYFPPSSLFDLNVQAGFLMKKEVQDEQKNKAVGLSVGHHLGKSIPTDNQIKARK

## Nc1ccc(S(=O)(=O)c2ccc(N)cc2)cc1 [dapsone]
[1]; infected or non infected red cell extract
  elution of hQR2, hALDH1 or any other protein from ATP affinity array: did not elute

## COc1cc(NC(C)CCCN)c2ncccc2c1 (stereo not shown) [PQ, primaquine]
QR2 [2]
  Ki: 1.04 ± 0.38 µM
  inhibition of QR2 activity: potent inhibitors
QR1
  IC50: 124 ± 10 µM
  effect on QR1 activity: weakly inhibited
[1]
  proteins eluted from ATP-Sepharose (ALDH1 55 kDa, QR2 26 kDa): selectively eluted proteins of 55 and 26 kDa
  proteins eluted from ATP affinity array (hALDH1 and hQR2): selectively eluted two proteins
QR2 [3]
  Kd: 9.3 µM

## O=c1cc(-c2ccccc2)oc2cc(O)cc(O)c12 [chrysin]
[4]; Plasmodium falciparum
  IC50: 53.8 µM

## Cc1cc(N)c2ccccc2n1 [4AQ, 4 amino quinaldine]
[1]
  proteins eluted from ATP affinity array (hALDH1 and hQR2): selectively eluted two proteins
QR2 [3]; purified hQR2 from human RBC, menadione substrate, read-out: Kd(app)
  Kd: 0.81 µM

## CCN(CC)c1ccc(C=O)cc1 [DEAB, diethylaminobenzaldehyde]
Malaria infection
  antimalarial activity: have antimalarial activity
[4]
  IC50: 277 µM

## CCN(CC)CCCC(C)Nc1c2ccc(Cl)cc2nc2ccc(OC)cc12 (stereo not shown) [QC, Quinacrine]
QR2 [2]
  Ki: 0.51 ± 0.11 µM
  inhibition of QR2 activity: potent inhibitors
QR1
  effect on QR1 activity: not affected
QR1; [6]
  IC50: > 1000 µM

## C=C[C@H]1C[N@@]2CC[C@H]1C[C@H]2[C@H](O)c1ccnc2ccc(OC)cc12 [Q, quinine]
QR2 [2]
  inhibition of QR2 activity: less potent inhibitors
QR2 [2]; [7]
  Ki: 252 ± 50 µM
QR1; [6]
  IC50: 9.6 ± 0.8 µM

## OC(c1cc(C(F)(F)F)nc2c(C(F)(F)F)cccc12)C1CCCCN1 (stereo not shown) [MQ, mefloquine]
QR2 [2]
  inhibition of QR2 activity: less potent inhibitors
QR2 [2]; [7]
  Ki: 17 ± 4 µM
QR1
  effect on QR1 activity: weakly inhibited
QR1; [6]
  IC50: 616 ± 60 µM
[1]
  proteins eluted from ATP-Sepharose (ALDH1 55 kDa, QR2 26 kDa): selectively eluted proteins of 55 and 26 kDa
  proteins eluted from ATP affinity array (hALDH1 and hQR2): selectively eluted two proteins

## O=c1c(O)c(-c2ccc(O)c(O)c2)oc2cc(O)cc(O)c12 [quercetin]
[4]; Plasmodium falciparum
  IC50: 81.8 µM

B1: hQR2 (Homo sapiens) (protein)
chain: MAGKKVLIVYAHQEPKSFNGSLKNVAVDELSRQGCTVTVSDLYAMNLEPRATDKDITGTLSNPEVFNYGVETHEAYKQRSLASDITDEQKKVREADLVIFQFPLYWFSVPAILKGWMDRVLCQGFAFDIPGFYDSGLLQGKLALLSVTTGGTAEMYTKTGVNGDSRYFLWPLQHGTLHFCGFKVLAPQISFAPEIASEEERKGMVAAWSQRLQTIWKEEPIPCTAHWHFGQ
notes: Pure hALDH was eluted with 5 mM NADH and pure hQR2 with 5 mM NMeN; tissue Valley Biomedical (blood); host or cells: human red blood cells
[5]
  Km: 14 µM
